{"source": "paper PMC4979516", "about": "“Quinazoline-based tricyclic compounds that regulate programmed cell death, induce neuronal differentiation, and are curative in animal models for excitotoxicity and hereditary brain disease” (Cell Death Discovery, 2015)", "key": {"PC12 cells [1]": {"system": "PC12 cells", "assay": "Collapse of mitochondrial membrane potential (JC-1) in PC12 cells", "type": "cell-based, rat", "details": "PC12, 50 μM MGV-1, 35 mM glutamate", "excerpt": "JC-1 was used to assay changes in Δψm, as described previously.[71],[79] Owing to charges distributed along JC-1 molecules, they pass unimpaired (charged) mitochondrial membranes and enter the mitochondrial matrix. There the J-molecules form J-aggregates, which emit at 590 nm (orange–red fluorescence). […] The monomers emit at 527 nm (green fluorescence). A decrease in the red–green fluorescence intensity ratio is an indication for mitochondrial depolarization. As a positive control, the proton ionophore carbonyl cyanide m-chlorophenylhydrazone was used as described previously.[71] Cells were collected and prepared for suspension in 10 μg/ml of JC-1 solution in PBS. After incubation at 37 °C for 30 min in the dark, the cells were washed with 0.5 ml of PBS, and the cell suspensions were analyzed with the BD FACSCalibur flow cytometer."}, "PC12 cells [2]": {"system": "PC12 cells", "assay": "Neuronal differentiation of PC12 cells, strain not specified", "type": "cell-based, rat", "details": "agent by itself; MGV-1 50 μM", "protocol": "For our newly developed differentiation method by MGV-1 in combination with glutamate, PC12 cells were plated onto poly-L-lysine coated culture plates and Petri dishes at a relatively low density (5.2×10^3 cells/cm^2 for six-well plates and 3.6×10^3 cells/cm^2 for Petri dishes), in DMEM medium containing 8% heat-inactivated FBS and 8% horse serum. […] Exposure to vehicle alone (culture medium with 1% of ethanol) was used as the control.\nThe major and determining indication of neural differentiation of PC12 cells is neurite development.[23],[80] […] The number of differentiated cells was determined by visual examination of the captured fields. In particular, a line was drafted at half height of the image and the cell bodies crossed by the line were further analyzed regarding differentiation. […] Cells with at least one identifiable neurite with a length at least equal to the cell body diameter were scored, and their number expressed as a percentage of the total number of cells crossed by said line. In addition, for each of these cells, the length of the longest neurite was determined (using AxioVision Image software, Zeiss). […]"}, "PC12 cells [3]": {"system": "PC12 cells", "assay": "Cell death of PC12 cells, glutamate with or without MGV-1 (LDH)", "type": "cell-based, rat", "protocol": "(2) For PC12 cells (as for U118MG cells), dose-response assays of the lethal effects of glutamate on PC12 cells established 35 mM as an optimal concentration for glutamate for induction of LDH activity in the medium in the range of 20–40% as compared with the effect of the positive control, 1% Triton X-100, the latter which is defined as causing 100% of LDH release in the medium."}, "R6-2 mice": {"system": "R6-2 mice", "assay": "R6-2 transgenic mouse model for Huntington disease (lifespan, behavior)", "type": "in vivo", "details": "pilot studies, s.c. daily 5 days per week; MGV-1 15 mg/kg, PK 11195 15 mg/kg, MGV-2 15 and 7.5 mg/kg", "excerpt": "Huntington disease in humans is a hereditary disease including neurodegeneration leading to degradation in motor performance, continual involuntary movements, tremors, cardiovascular and respiratory impairments, and finally leading to death of the patients having the disease.[88] For this study, R6-2 mice (~120 CAG repeats B6CBA-Tg(HDexon1)62 Gpb/3J) mice were used as a transgenic mouse model for Huntington disease. For this purpose, mice obtained from the Jackson Laboratory were bred. In particular, males hemizygous for Tg(HDexon1)62 Gpb, and females from the wild-type background strain B6CBAF1/J, were bred according to the protocol of Jackson Laboratory.\nFor tests of drug efficacy, male offspring hemizygous for Tg(HDexon1)62 Gpb were used to determine drug effect on lifespan, motor activity, and general well-being of the animals. Drug treatment for this study consisted of daily (5 continuous days per week) subcutaneous injections in the neck area of mice with 20 μl of: the drug vehicle DMSO (vehicle control), 2-Cl-MGV-1(7.5 mg/kg) and 2-Cl-MGV-2 (7.5 mg/kg). […] Quantities were used according to previous studies regarding TSPO ligands[48] and adapted depending on the findings in the course of the pilot studies. The treatments were given until the animals died a natural death. Behavioral experiments included distance covered in an open field apparatus,[89] freezing,[89] and balance on a rotor-rod.[90] Spontaneous tremor activity was evaluated using a Hamilton–Kinder sensor in a soundproof ventilated apparatus (Kinder Scientific). The assays for locomotor activity, tremors, and body weight were performed on a weekly basis, together with evaluation of the well-being of the mice. Finally, the day of death was noted. As lifespan data were most pronounced, these are presented in the present description of the results. No adverse effects of any of the drug treatments were noted, neither for specific tests, nor for general observations. Importantly, DMSO had no effect by itself as compared with naive mice or saline-injected mice with various behavioral assays.[20]"}, "[4]": {"target": "T1, 18 kDa translocator protein (TSPO) (Rattus norvegicus, UniProt P16257)", "T1 construct": "400 μl of homogenized rat kidney membranes (5 mg of homogenate/ml); from tissue; host or cells: rat kidney (homogenized membranes)", "T1 sequence (P16257 whole entry)": "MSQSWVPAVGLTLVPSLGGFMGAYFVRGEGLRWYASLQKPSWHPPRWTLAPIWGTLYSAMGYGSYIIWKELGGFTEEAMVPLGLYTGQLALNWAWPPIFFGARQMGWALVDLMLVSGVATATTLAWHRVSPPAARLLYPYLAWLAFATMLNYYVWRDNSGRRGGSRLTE", "assay": "TSPO binding, displacement of [3H]PK 11195 in rat kidney membranes", "protocol": "After incubation for 60 min at 4 °C, samples were filtered under vacuum over Whatman GF/C filters and washed three times with 5 ml of 50 mM Tris-HCl buffer, pH 7.4. The filters were incubated in CytoScint (MP Biomedicals) and radioactivity was measured after 12 h with a 1600 CA Tri-Carb liquid scintillation analyzer (Packard). Inhibitory constant (Ki) values were calculated by the equation Ki=IC50/(1+C/Kd), where C=[^3H]"}}, "note": "“Also recorded” adds a separate entry of the source."}
{"smiles": "CN(C)C(=O)Oc1nc(-c2ccccc2)nc2ccccc12", "note": "[MGV-1, 2-phenylquinazolin-4-yl dimethylcarbamate]", "values": [{"measurement": "Enhancement of the incidence of collapse of the ΔΨm", "setting": "PC12 cells [1]", "result": "threefold"}, {"measurement": "Neuronal differentiation of PC12 cells (neurite outgrowth)", "setting": "PC12 cells [2]", "result": "very effective in inducing extensive neuronal differentiation; also recorded: more effective than NGF and glutamate by themselves"}, {"measurement": "Cell death of PC12 cells by the compound by itself", "setting": "PC12 cells [3]; 100 μM, no glutamate", "result": "can induce cell death"}, {"measurement": "Enhancement of cell death induction by glutamate", "setting": "PC12 cells [3]; PC12, 50 μM MGV-1, 35 mM glutamate", "result": "threefold"}, {"measurement": "Optimal concentration as enhancer of cell death induced by glutamate", "setting": "PC12 cells [3]; PC12, 35 mM glutamate, tested 0.1 nM-100 μM", "result": 50, "unit": "µM"}, {"measurement": "Effect on behavior and lifespan of R6-2 mice", "setting": "R6-2 mice", "result": "did not appear to have an effect"}, {"measurement": "Ki", "setting": "[4]", "result": "825 ± 315", "unit": "nM"}]}
